In patent publication US11034698B2, “Pyrazolo[ 1,5a]pyrimidine derivatives as IRAK4 modulators” (priority 2017, dated 2021):

Each compound was assayed against human IRAK4 (Homo sapiens (Human), UniProt Q9NWZ3) (assay: IRAK4 kinase inhibition, Transcreener fluorescence polarization (ADP)). Conditions: not given.
Chain of human IRAK4 (Q9NWZ3 whole entry): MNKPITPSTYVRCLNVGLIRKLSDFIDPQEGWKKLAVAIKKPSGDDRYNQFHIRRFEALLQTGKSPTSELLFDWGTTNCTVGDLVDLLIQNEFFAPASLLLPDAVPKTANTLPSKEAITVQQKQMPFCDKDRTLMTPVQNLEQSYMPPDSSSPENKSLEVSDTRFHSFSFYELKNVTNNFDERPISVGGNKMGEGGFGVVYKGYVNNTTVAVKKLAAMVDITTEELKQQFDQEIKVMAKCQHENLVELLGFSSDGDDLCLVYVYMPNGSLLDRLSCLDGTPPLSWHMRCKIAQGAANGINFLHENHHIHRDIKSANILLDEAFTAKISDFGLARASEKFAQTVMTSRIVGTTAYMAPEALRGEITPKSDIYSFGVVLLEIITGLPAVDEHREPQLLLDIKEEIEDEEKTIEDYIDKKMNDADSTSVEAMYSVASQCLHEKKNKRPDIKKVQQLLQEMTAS
Type: biochemical
Procedure: Compounds were assayed for inhibition of human IRAK4 and IRAK1 catalytic activity using recombinant enzyme produced from insect cells. Full-length IRAK4 protein, carrying an N-terminal His6-Tag, was obtained from Life Technologies (Carlsbad, Calif., USA). The IRAK1 construct was produced internally and was comprised of IRAK1 residues Arg194 to Ser712, preceded by an NH2-terminal His6 tag and the coding sequence for glutathione-S-transferase.
Kinase activities were assayed using the Transcreener-Fluorecescence polarization platform (BelBrook Labs, Madison, Wis., USA) that measures amounts of the reaction product, ADP.
With CC1(C)Cc2cc(NC(=O)c3cnn4cccnc34)c(N3CCN(C[C@H]4CCCC(=O)N4)CC3)cc2O1 (single isomer, unassigned) [Example 7] the Ki was 10 nM. C[C@@H]1C[C@@H]2CN(c3cc4c(cc3NC(=O)c3cnn5cccnc35)CN(C[C@@H](F)C(C)(C)O)C4=O)CCN2C1 (single isomer, unassigned) [Example 111] showed a Ki of 9.9 nM. Work on CC1(C)Cc2cc(NC(=O)c3cnn4cccnc34)c(OC[C@@H]3Cc4ccccc4[C@@H]3N)cc2O1 (single isomer, unassigned) [Example 29] yielded a Ki of 780 nM. With CC1(C)Cc2cc(NC(=O)c3cnn4cccnc34)c(O[C@@H]3CN(CC(N)=O)C[C@H]3N)cc2O1 (single isomer, unassigned) [Example 20] the Ki was 17 nM. In the case of CC1(C)Cc2cc(NC(=O)c3cnn4cccnc34)c(OC[C@H]3Cc4ccccc4[C@H]3N)cc2O1 (single isomer, unassigned) [Example 27], the Ki is reported as 670 nM. CN(C)c1cc2c(cc1NC(=O)c1cnn3cccnc13)CC(C)(C)[C@@H]2O (single isomer, unassigned) [Example 157] showed a Ki of 310 nM. CC(C)(O)[C@H](F)CN1Cc2cc(NC(=O)c3cnn4cccnc34)c(O[C@@H]3CC[C@H](O)C3)cc2C1=O (single isomer, unassigned) [Example 67] was tested, and the Ki was 1.1 nM. With CN1C[C@@H](COc2cc3c(cc2NC(=O)c2cnn4cccnc24)CC(C)(C)O3)CC1=O (single isomer, unassigned) [Example 25] the Ki was 90 nM. In the case of CC1(C)Cc2cc(NC(=O)c3cnn4cccnc34)c(OC[C@H]3Cc4ccccc4[C@@H]3N)cc2O1 (single isomer, unassigned) [Example 28], the Ki is reported as 260 nM.

Same assay, conditions: recombinant full-length His6-IRAK4 1.25 nM; 125 uM ATP; 125 uM peptide; 90 min; ATP Km 642 uM; read-out: IRAK4 Ki
Compound CCc1nc[nH]c1CN1CCN(c2cc3c(cc2NC(=O)c2cnn4cccnc24)CC(C)(C)O3)CC1 [Example 9, N-[6-[4-[(4-Ethyl-1H-imidazol-5-yl)methyl]piperazin-1-yl]-2,2-dimethyl-3H-benzofuran-5-yl]pyrazolo[1,5-a]pyrimidine-3-carboxamide] has a Ki of 3.9 nM. In the case of CC(C)(O)[C@H](F)CN1Cc2cc(NC(=O)c3cnn4ccc(Cl)nc34)c(N3CCOCC3)cc2C1=O [Example 102, (R)-5-Chloro-N-(2-(2-fluoro-3-hydroxy-3-methylbutyl)-6-morpholino-1-oxoisoindolin-5-yl)pyrazolo[1,5-a]pyrimidine-3-carboxamide], the Ki is reported as 6.5 nM. For CC1(C)Cc2cc(NC(=O)c3cnn4cccnc34)c(O[C@H]3CN(CC(N)=O)C[C@@H]3N)cc2O1 [Example 19, N-(6-(((3S,4S)-4-Amino-1-(2-amino-2-oxoethyl)pyrrolidin-3-yl)oxy)-2,2-dimethyl-2,3-dihydrobenzofuran-5-yl)pyrazolo[1,5-a]pyrimidine-3-carboxamide], the Ki was 53 nM. CC1(C)Cc2cc(NC(=O)c3cnn4cccnc34)c(N3CCN(C4COC4)CC3)cc2O1 [Example 13, N-(2,2-Dimethyl-6-(4-(oxetan-3-yl)piperazin-1-yl)-2,3-dihydrobenzofuran-5-yl)pyrazolo[1,5-a]pyrimidine-3-carboxamide] was tested, and the Ki was 8.1 nM. Work on O=C(Nc1cc2c(cc1N1CCOCC1)OCCS2)c1cnn2cccnc12 [Example 153, N-(7-Morpholino-2,3-dihydro-1,4-benzoxathiin-6-yl)pyrazolo[1,5-a]pyrimidine-3-carboxamide] yielded a Ki of 280 nM. With CC(C)(O)[C@H](F)CN1Cc2cc(NC(=O)c3cnn4cccnc34)c(OC3CCOCC3)cc2C1=O [Example 85, (R)-N-(2-(2-Fluoro-3-hydroxy-3-methylbutyl)-1-oxo-6-((tetrahydro-2H-pyran-4-yl)oxy)isoindolin-5-yl)pyrazolo[1,5-a]pyrimidine-3-carboxamide] the Ki was 1.8 nM. Compound Cn1ccc2cc(NC(=O)c3cnn4cccnc34)c(N3CCOCC3)cc2c1=O [Example 152, N-(2-Methyl-7-morpholino-1-oxo-1,2-dihydroisoquinolin-6-yl)pyrazolo[1,5-a]pyrimidine-3-carboxamide] has a Ki of 210 nM. CC(C)(O)[C@H](F)CN1Cc2cc(NC(=O)c3cnn4cccnc34)c(N3CCN(CC(F)(F)F)CC3)cc2C1=O [Example 109, (R)-N-(2-(2-Fluoro-3-hydroxy-3-methylbutyl)-1-oxo-6-(4-(2,2,2-trifluoroethyl)piperazin-1-yl)isoindolin-5-yl)pyrazolo[1,5-a]pyrimidine-3-carboxamide] gave a Ki of 2.6 nM. With Cn1cc(Oc2cc3c(cc2NC(=O)c2cnn4cccnc24)CN(C[C@@H](F)C(C)(C)O)C3=O)cn1 [Example 89, (R)-N-(2-(2-Fluoro-3-hydroxy-3-methylbutyl)-6-((1-methyl-1H-pyrazol-4-yl)oxy)-1-oxoisoindolin-5-yl)pyrazolo[1,5-a]pyrimidine-3-carboxamide] the Ki was 1.3 nM. Work on CC(C)(O)[C@H](F)CN1Cc2cc(NC(=O)c3cnn4cccnc34)c(C#N)cc2C1=O [Example 98, (R)—N-(6-Cyano-2-(2-fluoro-3-hydroxy-3-methylbutyl)-1-oxoisoindolin-5-yl)pyrazolo[1,5-a]pyrimidine-3-carboxamide] yielded a Ki of 8.5 nM. CC(C)(O)[C@H](F)CN1Cc2cc(NC(=O)c3cnn4cccnc34)c(OC(F)F)cc2C1=O [Example 88, (R)-N-(6-(Difluoromethoxy)-2-(2-fluoro-3-hydroxy-3-methylbutyl)-1-oxoisoindolin-5-yl)pyrazolo[1,5-a]pyrimidine-3-carboxamide] was tested, and the Ki was 0.5 nM. CC[C@@H]1CC(=O)NN1C1CCN(c2cc3c(cc2NC(=O)c2cnn4cccnc24)CC(C)(C)O3)CC1 [Example 17, (R)-N-(6-(4-(5-Ethyl-3-oxopyrazolidin-1-yl)piperidin-1-yl)-2,2-dimethyl-2,3-dihydrobenzofuran-5-yl)pyrazolo[1,5-a]pyrimidine-3-carboxamide] showed a Ki of 8.4 nM. CC1(C)Cc2cc3c(cc2O1)N1CCN(CCNc2ccn4ncc(c4n2)C(=O)N3)CC1 [Example 45, (5^3E,5^4E)-2^2,2^2-Dimethyl-2^2,2^3-dihydro-3,6-diaza-5(3,5)-pyrazolo[1,5-a]pyrimidina-1(1,4)-piperazina-2(6,5)-benzofuranacyclooctaphan-4-one] showed a Ki of 120 nM. Work on CC(C)Oc1cc2c(cc1NC(=O)c1cnn3cccnc13)CN([C@H]1CCOC1)C2=O [Example 68, (S)-N-(6-Isopropoxy-1-oxo-2-(tetrahydrofuran-3-yl)isoindolin-5-yl)pyrazolo[1,5-a]pyrimidine-3-carboxamide] yielded a Ki of 2.5 nM. CN(C)c1cc2c(cc1NC(=O)c1cnn3cccnc13)CC(C)(C)[C@H]2O [Example 156, N-[(1R)-6-(Dimethylamino)-1-hydroxy-2,2-dimethyl-indan-5-yl]pyrazolo[1,5-a]pyrimidine-3-carboxamide] gave a Ki of 16 nM. With CNc1cc2c(cc1NC(=O)c1cnn3cccnc13)CN(C[C@@H](F)C(C)(C)O)C2=O [Example 91, N-[2-[(2R)-2-Fluoro-3-hydroxy-3-methyl-butyl]-6-(methylamino)-1-oxo-isoindolin-5-yl]pyrazolo[1,5-a]pyrimidine-3-carboxamide] the Ki was 280 nM. CC(C)(O)[C@H](F)CN1Cc2cc(NC(=O)c3cnn4cccnc34)c(O[C@H]3C[C@@H](F)C3)cc2C1=O [Example 61, N-[6-(3-Fluorocyclobutoxy)-2-[(2R)-2-fluoro-3-hydroxy-3-methyl-butyl]-1-oxo-isoindolin-5-yl]pyrazolo[1,5-a]pyrimidine-3-carboxamide] was tested, and the Ki was 0.28 nM. CC(C)Oc1cc2c(cc1NC(=O)c1cnn3cccnc13)CN(C[C@@H](F)C(C)(C)O)C2=O [Example 78, N-[2-[(2R)-2-Fluoro-3-hydroxy-3-methyl-butyl]-6-isopropoxy-1-oxo-isoindolin-5-yl]pyrazolo[1,5-a]pyrimidine-3-carboxamide] showed a Ki of 0.17 nM. With O=C(Nc1cc2c(cc1N1CCOCC1)N(CCCO)C(=O)CC2)c1cnn2cccnc12 [Example 48, N-(1-(3-Hydroxypropyl)-7-morpholino-2-oxo-1,2,3,4-tetrahydroquinolin-6-yl)pyrazolo[1,5-a]pyrimidine-3-carboxamide] the Ki was 240 nM. CC(C)(O)[C@H](F)CN1Cc2cc(NC(=O)c3cnn4cccnc34)c(OCC3COC3)cc2C1=O [Example 79, (R)-N-(2-(2-Fluoro-3-hydroxy-3-methylbutyl)-6-(oxetan-3-ylmethoxy)-1-oxoisoindolin-5-yl)pyrazolo[1,5-a]pyrimidine-3-carboxamide] gave a Ki of 0.97 nM. For O=C1CCc2cc(NC(=O)c3cnn4cccnc34)c(N3CCOCC3)cc2N1 [Example 46, N-(7-Morpholino-2-oxo-1,2,3,4-tetrahydroquinolin-6-yl)pyrazolo[1,5-a]pyrimidine-3-carboxamide], the Ki was 42 nM. For CC(C)(O)[C@H](F)CN1Cc2cc(NC(=O)c3cnn4cccnc34)c(N3CCC(CC(F)F)CC3)cc2C1=O [Example 96, (R)-N-(6-(4-(2,2-Difluoroethyl)piperidin-1-yl)-2-(2-fluoro-3-hydroxy-3-methylbutyl)-1-oxoisoindolin-5-yl)pyrazolo[1,5-a]pyrimidine-3-carboxamide], the Ki was 1.5 nM. With CC(C)(C)Oc1cc2c(cc1NC(=O)c1cnn3cccnc13)CN(C[C@@H](F)C(C)(C)O)C2=O [Example 90, (R)-N-(6-(tert-Butoxy)-2-(2-fluoro-3-hydroxy-3-methylbutyl)-1-oxoisoindolin-5-yl)pyrazolo[1,5-a]pyrimidine-3-carboxamide] the Ki was 0.61 nM. Compound CC(C)(O)[C@H](F)CN1Cc2cc(NC(=O)c3cnn4cccnc34)c(OC3CC3)cc2C1=O [Example 77, (R)—N-(6-Cyclopropoxy-2-(2-fluoro-3-hydroxy-3-methylbutyl)-1-oxoisoindolin-5-yl)pyrazolo[1,5-a]pyrimidine-3-carboxamide] has a Ki of 0.63 nM. For O=C(Nc1cc2c(cc1N1CCOCC1)C(=O)N(C1CC3(COC3)C1)C2)c1cnn2cccnc12 [Example 94, N-[6-Morpholino-2-(2-oxaspiro[3.3]heptan-6-yl)-1-oxo-isoindolin-5-yl]pyrazolo[1,5-a]pyrimidine-3-carboxamide], the Ki was 4.9 nM.
